A short description of data set [1]: Beagle pharmacokinetic study (ig/sc/iv, plasma LC/MS/MS). Type of data set: in vivo, beagles. The following applies: for AUC(0-t) / half-life / Cmax: dog, plasma; for AUC(0-t): read-out: Area under curve AUC0-72; for half-life: read-out: Half life T½ (converted); for Cmax: read-out: Plasma concentration Cmax. Here is the method: Taking beagles as test animals, and the drug concentrations in dog plasma at various times after intragastric administration (ig)/subcutaneous injection (sc)/intravenous injection (iv) administration of the compound of Example 1-1 and Positive Control Example 1 were measured by using LC/MS/MS method. The pharmacokinetic performance in beagles of the compounds of the present disclosure was studied and the pharmacokinetic profile thereof was evaluated.
18 non-naïve beagles (999M-004, medicilon) with 7-12 kg, every 3 of which were in one group.
The intragastric administration group: a certain amount of the compounds was weighed, ethanol with a volume of 5% of the final volume, 20% PG, 45% PEG300 and 30% deionized water were added (the pH was adjusted to be about 2 with 0.01 N HCl), and the reaction mixture was subjected to ultrasonic stirring for uniform mixing to give an administration solution at a concentration of 0.8 mg/mL.
The subcutaneous injection administration group: a certain amount of the compounds was weighed, 2% aqueous poloxamer 188 solution with a proper volume was added, and the reaction mixture was subjected to ultrasonic stirring for uniform mixing to give a suspension administration solution at a concentration of 200 mg/mL.
The intravenous administration group: a certain amount of the compounds was weighed, 5% volume of DMSO, 30% PG, 30% PEG400 and 35% volume of normal saline were added, and the reaction mixture was subjected to vortex ultrasonic stirring for uniform mixing to give an administration solution at a concentration of 0.5 mg/mL.
Beagles were intragastrically administered with the compounds after fasting overnight, at a dose of 4.0 mg/kg and a volume of 5.0 mL/kg.
Beagles were subcutaneously injected with the compounds after fasting overnight, at a dose of 6.0 mg/kg and a volume of 0.03 mL/kg.
Beagles were intravenously injected with the compounds after fasting overnight, at a dose of 1.0 mg/kg and a volume of 2 mL/kg.
Beagles were intragastrically administered with the compound of Example 1-1/Positive Control Example 1, and 1 mL of blood was collected from the orbit before administration and at 0.25 h, 0.5 h, 1.0 h, 2.0 h, 4.0 h, 6.0 h, 8.0 h, 12.0 h, 24 h, 32 h, 48 h, 56 h and 72 h after administration, respectively, and placed in EDTA-K2 anticoagulant blood collection tubes, plasma was centrifuged (centrifugal force: 2200 g, centrifugation time: 10 min, 2-8° C.), and stored at −80° C., and food intake was resumed 3 h after administration.
The compound of Example 1-1/Positive Control Example 1 was subcutaneously injected to beagles, and 1 mL of blood was collected before administration and at 1.0 h, 3.0 h, 8.0 h, 24 h, 48 h, 72 h, 96 h, 168 h, 336 h, 432 h and 504 h after administration, respectively, and placed in EDTA-K2 anticoagulant blood collection tubes, plasma was centrifuged (centrifugal force: 2200 g, centrifugation time: 10 min, 2-8° C.), and stored at −80° C., and food intake was resumed 3 h after administration.
The content of the compound to be tested in the plasma of beagles was determined after the intragastric administration of the compounds at different concentrations: 20 μL of the plasma in beagles at each time after administration was taken, 200 μL of methanol containing internal standard (100 ng/mL) was added, the reaction mixture was subjected to vortex mixing for 1 min, and centrifuged for 7 min (centrifugal force: 18000 g), and 1 μL of the supernatant was taken from the plasma sample for LC/MS/MS analysis. […]

Data set [2] can be described thus: Monkey pharmacokinetic study (iv, plasma LC/MS/MS). Type of data set: in vivo, cynomolgus monkeys. The following applies: cynomolgus monkey, intravenous injection, 1 mg/kg. Here is the method: Taking cynomolgus monkeys as test animals and the drug concentrations in monkey plasma at various times after intravenous injection (iv) of the compounds of Example 1-1 and Positive Control Example 1 were measured by using LC/MS/MS method. The pharmacokinetic performance in cynomolgus monkeys of the compounds of the present disclosure was studied and the pharmacokinetic profile thereof was evaluated.
6 non-naïve cynomolgus monkeys (999M-004, medicilon) with 2-5 kg, every 3 of which were in one group.
A certain amount of the compounds was weighed, 5% volume of DMSO, 30% PG, 30% PEG400 and 35% volume of normal saline were added, and the reaction mixture was subjected to vortex ultrasonic stirring for uniform mixing to give a clean administration solution at a concentration of 0.5 mg/mL.
Monkeys were intravenously injected with the compounds after fasting overnight, at a dose of 1.0 mg/kg and a volume of 2 mL/kg.
The compound of Example 1-1/Positive Control Example 1 was intravenously injected to monkeys, and 1 mL of blood was collected through femoral vein before administration and at 5 min, 0.25 h, 0.5 h, 1.0 h, 2.0 h, 4.0 h, 8.0 h, 12.0 h, 24 h, 32 h, 48 h, 56 h and 72 h after administration, respectively, and placed in EDTA-K2 anticoagulant blood collection tubes, plasma was centrifuged (centrifugal force: 2200 g, centrifugal time: 10 min, 2-8° C.), and stored at −80° C., and food intake was resumed 3 h after administration.

Setting [3] is: po, intragastric administration, 4 mg/kg.
[4] abbreviates: sc, subcutaneous injection, 6 mg/kg.

Like-named read-outs stand apart in the source and are kept apart here.

Usually half-life stands for how long it takes for the measured level to halve. Turning to `CC(C)(C#Cc1nc([C@H](Cc2cc(F)cc(F)c2)NC(=O)Cn2nc(C(F)(F)F)c3c2C(F)(F)[C@@H]2C[C@H]32)c(-c2ccc(Cl)c3c(NS(C)(=O)=O)nn(CC(F)(F)F)c23)c2c1CCC2)S(C)(=O)=O` (atropisomer, axis not shown; (aR)) [Example 1-1, N—((S)-1-((R)-4-(4-chloro-3-(methanesulfonamide)-1-(2,2,2-trifluoroethyl)-1H-indazol-7-yl)-1-(3-methyl-3-(methylsulfonyl)but-1-yn-1-yl)-6,7-dihydro-5H-cyclopenta[c]pyridin-3-yl)-2-(3,5-difluorophenyl)ethyl)-2-((3bS,4aR)-5,5-difluoro-3-(trifluoromethyl)-3b,4,4a,5-tetrahydro-1H-cyclopropa[3,4]cyclopenta[1,2-c]pyrazol-1-yl)acetamide], the AUC(0-t) in data set [1] (intravenous injection, 1 mg/kg) was found to be 16.5 µg·h/mL; in data set [1] (setting [3]) it was 8.23 µg·h/mL; in data set [1] (setting [4]), 34.8 µg·h/mL; in data set [2] (plasma, read-out: Area under curve AUC0-72), 8.52 µg·h/mL. The half-life was 41.8 h in data set [1] (intravenous injection, 1 mg/kg) and 44.3 h in data set [1] (setting [3]). Moreover, the Cmax turned out to be 1.32 µg/mL in data set [1] (intravenous injection, 1 mg/kg); 0.251 µg/mL in data set [1] (setting [3]); 0.122 µg/mL in data set [1] (setting [4]). The “Clearance CLz/F” value in data set [1] (intravenous injection, 1 mg/kg) came to 0.042 L/h/kg; in data set [2], 0.12 L/h/kg.

The values above are taken from patent publication US12428396B2, “Fused pyridine ring derivative, preparation method therefor, and pharmaceutical use thereof” (priority 2019, dated 2025).
